Some results are limits rather than exact numbers.

For experiment [1], the system named is H929 human cancer cell lines. As to the kind of experiment: Cellular viability / proliferation (Cell TiterGlo, 72 h). The conditions noted are these: Homo sapiens, NCI-H929, 72 h, read-out: GI50 on cellular proliferation of H929 human cancer cell lines, H929 cells, 72 h, Cell TiterGlo, 10% FBS. It is filed as cell-based. A digest of the protocol: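 Top dose 50 μM, serially diluted 2-fold, applied one day after seeding (1,000 cells/well, 10% FBS), DMSO below 1%.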

The target in the next experiment is Mcl-1 (Homo sapiens (Human), UniProt Q07820). Description: TR-FRET binding assay, FITC-Bak peptide and MBP-tagged Mcl-1. The conditions noted are these: read-out: Ki for Inhibition of Mcl-1 by TR-FRET assay. How it is done:
Compounds are diluted in DMSO in a 16-point, semilog serial dilution scheme. […] The plate was mixed and incubated for 3 hours at room temperature. […] TR-FRET signal is plotted and IC50 and Ki values are calculated in the same manner as the fluorescence polarization anisotropy based competition assays.

Sequence of Mcl-1 (Q07820 172-327): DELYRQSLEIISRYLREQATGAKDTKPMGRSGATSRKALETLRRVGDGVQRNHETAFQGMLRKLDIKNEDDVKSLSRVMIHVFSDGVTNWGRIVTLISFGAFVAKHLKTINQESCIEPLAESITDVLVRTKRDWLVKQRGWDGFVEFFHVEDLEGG

On to `Cc1cc(OCCCc2c3n(c4c(-c5c(C)nn(C)c5C)c(Cl)ccc24)[C@H](C)CN(c2cc(OC4CC[N+](C)(C)C4)cc4cc(C(=O)O)n(C)c24)C3=O)cc(C)c1Cl` (stereo partly drawn) [Example 513, 3-((2-Carboxy-7-((R)-7-chloro-10-(3-(4-chloro-3,5-dimethylphenoxy)propyl)-4-methyl-1-oxo-6-(1,3,5-trimethyl-1H-pyrazol-4-yl)-3,4-dihydropyrazino[1,2-a]indol-2(1H)-yl)-1-methyl-1H-indol-5-yl)oxy)-1,1-dimethylpyrrolidin-1-ium 2,2,2-trifluoroacetate], for which the GI50 in experiment [1] stood at 5300 nM. In addition, the Ki at Mcl-1 was under 0.2 nM.

On to `C=Cc1ccnc(Cn2c(C(=O)O)cc3cc(C)cc(N4C[C@@H](C)n5c(c(CCCOc6cc(C)c(Cl)c(C)c6)c6ccc(Cl)c(-c7c(C)nn(C)c7C)c65)C4=O)c32)c1` [Example 514, (R)-7-(7-chloro-10-(3-(4-chloro-3,5-dimethylphenoxy)propyl)-4-methyl-1-oxo-6-(1,3,5-trimethyl-1H-pyrazol-4-yl)-3,4-dihydropyrazino[1,2-a]indol-2(1H)-yl)-5-methyl-1-((4-vinylpyridin-2-yl)methyl)-1H-indole-2-carboxylic acid], for which, in experiment [1], the GI50 was under 200 nM. Further, at Mcl-1, the Ki is under 0.2 nM.

On to `Cc1cc(N2C[C@@H](C)n3c(c(CCCOc4cc(C)c(Cl)c(C)c4)c4ccc(Cl)c(-c5c(C)nn(C)c5C)c43)C2=O)c2c(c1)cc(C(=O)O)n2Cc1cc(N2CCN(C)CC2)ccn1` [Example 515, (R)-7-(7-Chloro-10-(3-(4-chloro-3,5-dimethylphenoxy)propyl)-4-methyl-1-oxo-6-(1,3,5-trimethyl-1H-pyrazol-4-yl)-3,4-dihydropyrazino[1,2-a]indol-2(1H)-yl)-5-methyl-1-((4-(4-methylpiperazin-1-yl)pyridin-2-yl)methyl)-1H-indole-2-carboxylic acid], for which the GI50 in experiment [1] came to 610 nM. Moreover, the Ki at Mcl-1 is under 0.2 nM.

Take `Cc1cc(N2C[C@@H](C)n3c(c(CCCOc4cc(C)c(Cl)c(C)c4)c4ccc(Cl)c(-c5c(C)nn(C)c5C)c43)C2=O)c2c(c1)cc(C(=O)O)n2Cc1cccc(N2CCN(C)CC2)n1` [Example 516, (R)-7-(7-Chloro-10-(3-(4-chloro-3,5-dimethylphenoxy)propyl)-4-methyl-1-oxo-6-(1,3,5-trimethyl-1H-pyrazol-4-yl)-3,4-dihydropyrazino[1,2-a]indol-2(1H)-yl)-5-methyl-1-((6-(4-methylpiperazin-1-yl)pyridin-2-yl)methyl)-1H-indole-2-carboxylic acid]: the GI50 in experiment [1] was 330 nM. Moreover, at Mcl-1, the Ki was under 0.2 nM.

Consider `C=Cc1cccc(Cn2c(C(=O)O)cc3cc(C)cc(N4C[C@@H](C)n5c(c(CCCOc6cc(C)c(Cl)c(C)c6)c6ccc(Cl)c(-c7c(C)nn(C)c7C)c65)C4=O)c32)n1` [Example 517, (R)-7-(7-Chloro-10-(3-(4-chloro-3,5-dimethylphenoxy)propyl)-4-methyl-1-oxo-6-(1,3,5-trimethyl-1H-pyrazol-4-yl)-3,4-dihydropyrazino[1,2-a]indol-2(1H)-yl)-5-methyl-1-((6-vinylpyridin-2-yl)methyl)-1H-indole-2-carboxylic acid], for which the GI50 in experiment [1] is 760 nM. The Ki on Mcl-1 came out at 0.36 nM.

As to `Cc1cc(OCCCc2c3n(c4c(-c5c(C)nn(C)c5C)c(Cl)ccc24)[C@H](C)CN(c2cccc4cc(C(=O)O)n(Cc5ccncn5)c24)C3=O)cc(C)c1Cl` [Example 518, (R)-7-(7-chloro-10-(3-(4-chloro-3,5-dimethylphenoxy)propyl)-4-methyl-1-oxo-6-(1,3,5-trimethyl-1H-pyrazol-4-yl)-3,4-dihydropyrazino[1,2-a]indol-2(1H)-yl)-1-(pyrimidin-4-ylmethyl)-1H-indole-2-carboxylic acid], the GI50 in experiment [1] amounted to 810 nM. For the same molecule, at Mcl-1, the inhibitory constant (Ki) is under 0.2 nM.

Turning to `Cc1cc(OCCCc2c3n(c4c(-c5c(C)nn(C)c5C)c(Cl)ccc24)[C@H](C)CN(c2cc(OC4CCN(C)CC4)cc4cc(C(=O)O)n(C)c24)C3=O)cc(C)c1Cl` [Example 519, (R)-7-(7-chloro-10-(3-(4-chloro-3,5-dimethylphenoxy)propyl)-4-methyl-1-oxo-6-(1,3,5-trimethyl-1H-pyrazol-4-yl)-3,4-dihydropyrazino[1,2-a]indol-2(1H)-yl)-1-methyl-5-((1-methylpiperidin-4-yl)oxy)-1H-indole-2-carboxylic acid], the GI50 in experiment [1] came to 990 nM. Moreover, the Ki at Mcl-1 worked out at 0.46 nM.

`COc1ccc(N2C[C@@H](C)n3c(c(CCCOc4cc(C)c(Cl)c(C)c4)c4ccc(Cl)c(-c5c(C)ncnc5C)c43)C2=O)c2c1cc(C(=O)O)n2Cc1cc(C)ccn1` [Example 520, (R)-7-(7-chloro-10-(3-(4-chloro-3,5-dimethylphenoxy)propyl)-6-(4,6-dimethylpyrimidin-5-yl)-4-methyl-1-oxo-3,4-dihydropyrazino[1,2-a]indol-2(1H)-yl)-4-methoxy-1-((4-methylpyridin-2-yl)methyl)-1H-indole-2-carboxylic acid]: the GI50 in experiment [1] is under 200 nM. Further, on Mcl-1, the Ki is under 0.2 nM.

Turning to `Cc1cc(OCCCc2c3n(c4c(-c5c(C)nn(C)c5C)c(Cl)ccc24)[C@H](C)CN(c2cc(OC4CCN(C)C4)cc4cc(C(=O)O)n(C)c24)C3=O)cc(C)c1Cl` (stereo partly drawn) [Example 521, 7-((R)-7-chloro-10-(3-(4-chloro-3,5-dimethylphenoxy)propyl)-4-methyl-1-oxo-6-(1,3,5-trimethyl-1H-pyrazol-4-yl)-3,4-dihydropyrazino[1,2-a]indol-2(1H)-yl)-1-methyl-5-((1-methylpyrrolidin-3-yl)oxy)-1H-indole-2-carboxylic acid], the GI50 in experiment [1] came to 610 nM. The Ki at Mcl-1 is under 0.2 nM.

As to `Cc1cc(OCCCc2c3n(c4c(-c5c(C)nn(C)c5C)c(Cl)ccc24)[C@H](C)CN(c2cc(Oc4ccccn4)cc4cc(C(=O)O)n(C)c24)C3=O)cc(C)c1Cl` [Example 522, (R)-7-(7-Chloro-10-(3-(4-chloro-3,5-dimethylphenoxy)propyl)-4-methyl-1-oxo-6-(1,3,5-trimethyl-1H-pyrazol-4-yl)-3,4-dihydropyrazino[1,2-a]indol-2(1H)-yl)-1-methyl-5-(pyridin-2-yloxy)-1H-indole-2-carboxylic acid], in experiment [1], the GI50 was found to be 750 nM. Besides, the Ki on Mcl-1 amounted to 0.32 nM.

For `Cc1cc(OCCCc2c3n(c4c(-c5c(C)nn(C)c5C)c(Cl)ccc24)[C@H](C)CN(c2cc(NCc4ccccn4)cc4c(C(=O)O)cn(C)c24)C3=O)cc(C)c1Cl` [Example 523, (R)-7-(7-Chloro-10-(3-(4-chloro-3,5-dimethylphenoxy)propyl)-4-methyl-1-oxo-6-(1,3,5-trimethyl-1H-pyrazol-4-yl)-3,4-dihydropyrazino[1,2-a]indol-2(1H)-yl)-1-methyl-5-((pyridin-2-ylmethyl)amino)-1H-indole-3-carboxylic acid], the GI50 in experiment [1] came out at 890 nM. The Ki at Mcl-1 worked out at 0.5 nM.

As for `COCCn1cc(N2C[C@@H](C)n3c(c(CCCOc4cc(C)c(Cl)c(C)c4)c4ccc(Cl)c(-c5c(C)nn(C)c5C)c43)C2=O)c2cc(-c3ncn(C)n3)ccc21` [Example 524, (R)-7-Chloro-10-(3-(4-chloro-3,5-dimethylphenoxy)propyl)-2-(1-(2-methoxyethyl)-5-(1-methyl-1H-1,2,4-triazol-3-yl)-1H-indol-3-yl)-4-methyl-6-(1,3,5-trimethyl-1H-pyrazol-4-yl)-3,4-dihydropyrazino[1,2-a]indol-1(2H)-one], in experiment [1], the GI50 turned out to be 220 nM. For the same molecule, the Ki on Mcl-1 turned out to be 0.28 nM.

As for `Cc1cc(OCCCc2c3n(c4c(-c5c(C)nn(C)c5C)c(Cl)ccc24)[C@H](C)CN(c2cn(CC(=O)N4CCOCC4)c4ccc(-c5ncn(C)n5)cc24)C3=O)cc(C)c1Cl` [Example 525, (R)-7-Chloro-10-(3-(4-chloro-3,5-dimethylphenoxy)propyl)-4-methyl-2-(5-(1-methyl-1H-1,2,4-triazol-3-yl)-1-(2-morpholino-2-oxoethyl)-1H-indol-3-yl)-6-(1,3,5-trimethyl-1H-pyrazol-4-yl)-3,4-dihydropyrazino[1,2-a]indol-1(2H)-one], the GI50 in experiment [1] worked out at 330 nM. Further, the Ki at Mcl-1 amounted to 0.41 nM.

On to `Cc1cc(OCCCc2c3n(c4c(-c5c(C)nn(C)c5C)c(Cl)ccc24)[C@H](C)CN(c2cn(CCN4CCN(C)CC4)c4ccc(-c5ncn(C)n5)cc24)C3=O)cc(C)c1Cl` [Example 526, (R)-7-Chloro-10-(3-(4-chloro-3,5-dimethylphenoxy)propyl)-4-methyl-2-(5-(1-methyl-1H-1,2,4-triazol-3-yl)-1-(2-(4-methylpiperazin-1-yl)ethyl)-1H-indol-3-yl)-6-(1,3,5-trimethyl-1H-pyrazol-4-yl)-3,4-dihydropyrazino[1,2-a]indol-1(2H)-one], for which the GI50 in experiment [1] is under 200 nM. Besides, the Ki at Mcl-1 is under 0.2 nM.

Regarding `Cc1cc(OCCCc2c3n(c4c(-c5c(C)nn(C)c5C)c(Cl)ccc24)[C@H](C)CN(c2cn(CC(=O)N4CCCC4)c4ccc(-c5ncn(C)n5)cc24)C3=O)cc(C)c1Cl` [Example 527, (R)-7-Chloro-10-(3-(4-chloro-3,5-dimethylphenoxy)propyl)-4-methyl-2-(5-(1-methyl-1H-1,2,4-triazol-3-yl)-1-(2-oxo-2-(pyrrolidin-1-yl)ethyl)-1H-indol-3-yl)-6-(1,3,5-trimethyl-1H-pyrazol-4-yl)-3,4-dihydropyrazino[1,2-a]indol-1(2H)-one], in experiment [1], the GI50 stood at 260 nM. At Mcl-1, the Ki was determined as 0.36 nM.

These data come from patent publication US11596639B2, “Substituted indole Mcl-1 inhibitors” (Vanderbilt University, priority 2016, dated 2023).
